From PubChem BioAssay AID179 (DTP/NCI, 2004) come the findings set out here.

In this assay the test system is CEM cells HIV-1 protection, formazan growth assay. In words: NCI AIDS Antiviral Assay. Particulars: for IC50: measured here: growth of uninfected CEM cells. In a few lines: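 Soluble formazan readout of cell growth; CEM cells ± HIV-1; 5 drug concs. ≥50% protection → retest; ≥50% again = moderately active; reproducible 100% = confirmed active.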

The source made the active and inactive calls.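 Rule for the calls: active = compounds giving half or more protection of infected cells from virus-caused growth loss, again on retest; inactive = the rest.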

As a reminder, the EC50 is the concentration that produces a half-maximal response. The term IC50 denotes the midpoint of a concentration-inhibition curve.

`CCOc1csc([C@H]2CCC3[C@@H]4CC=C5C[C@@H](O)CC[C@]5(C)C4CC[C@@]32C)n1` (some centres not stated): the EC50 is above 3.39 µM and the half-inhibitory concentration (IC50) is above 3.39 µM.
In the case of `CN(C)N1C(=O)c2c(Cl)c(Cl)c(Cl)c(Cl)c2C1=O`, the EC50 was above 200 µM and the IC50 turned out to be 91.2 µM.
Take `Cc1ccc(C)c(NC(=O)C(=O)C(C(=O)c2ccc3ccccc3c2)C2OC(=O)c3ccccc32)c1` (configuration not stated): the EC50 is above 53.7 µM and the 50% inhibitory concentration (IC50) was determined as 23.4 µM.
As to `c1cnc2c(c1)-n1cccc1C1(CCCCC1)NN2`, the EC50 is above 200 µM and the IC50 was above 200 µM.
As for `Cc1ccccc1C=NC12CC3CC(CC(C3)C1)C2`, the EC50 is above 53.7 µM and the concentration for half-maximal inhibition (IC50) was above 53.7 µM.
With `COc1ccc(OC)c(NC(=O)CCC/C(CC(=O)c2ccc(O)c(OC)c2)=N\Nc2nnc(C)n2N)c1`, the EC50 is above 7.24 µM and the IC50 was above 7.24 µM.
Regarding `Nc1ccc(S(=O)Cc2ccc(C(=O)O)cc2[N+](=O)[O-])cc1` (configuration not stated), the EC50 is above 776 µM and the IC50 was above 776 µM.
On to `COc1ccc2nc3c([N+](=O)[O-])ccc(NCCCN(C)C)c3c(NCCCN(C)C)c2c1`, for which the EC50 is above 200 µM and the IC50 was 0.229 µM.
On to `CN1C(=O)c2c(c3c4ccccc4n(C4OC(CO)C(O)C(O)C4O)c3c3[nH]c4ccccc4c23)C1=O` (configuration not stated), for which the EC50 is above 200 µM and the concentration for half-maximal inhibition (IC50) worked out at 3.89 µM.
On to `Cc1ccc(NC(=O)CC/C(CC(=O)C(C)(C)C)=N/NC(=O)c2cc3ccccc3cc2O)cc1C`, for which the EC50 is above 20.4 µM and the IC50 is above 20.4 µM.
For the compound `COc1ccc(-c2csc(=Nc3ccccc3)n2CCCN(C)C)cc1`, the EC50 was above 200 µM and the IC50 came to 16.2 µM.
With `O=C1CC2(CCN(Cc3ccccc3)CC2)CC(=O)N1`, the EC50 was above 200 µM and the IC50 is above 200 µM.
With `N#Cc1sc2c(c1OC(=O)c1ccc(Cl)cc1)c(=O)n(-c1ccccc1)c(=S)n2-c1ccccc1`, the EC50 is above 200 µM and the concentration for half-maximal inhibition (IC50) is 1.2 µM.
Consider `CCc1cccc(C(C)C)c1NC(=O)C(=O)CC(=O)c1sc(Nc2c(CC)cccc2C(C)(C)C)nc1C`, for which the EC50 was above 200 µM and the IC50 turned out to be 60.3 µM.
In the case of `CSc1cc(-c2ccccn2)nc(-c2ccccn2)c1`, the EC50 was above 2 µM and the IC50 was determined as 0.269 µM.
On the same counts, the results for `Cc1ccn2c(=O)cc(CN3CCOCC3)nc2c1` are above 200 µM and above 200 µM.
For `NNC(=O)CCC(=O)NC1C2CC3CC(C2)CC1C3` (configuration not stated), the EC50 is above 676 µM and the half-inhibitory concentration (IC50) is above 676 µM.
As for `N/N=C1/C(=O)N(c2ccc(Cl)cc2)C(=O)C(=O)C1c1nc2ccccc2s1` (configuration not stated), the EC50 is above 18.2 µM and the IC50 was above 18.2 µM.
Regarding `CNC(=O)OCC1=CC(=O)C(OC)=CC1=O`, the EC50 is above 200 µM and the concentration for half-maximal inhibition (IC50) is 10 µM.
Consider `C=C1C(=O)O[C@H]2C3C(=C(C)CC[C@@H]12)C(=O)[C@@H]1OC31C` (some centres not stated), for which the EC50 is above 200 µM and the concentration for half-maximal inhibition (IC50) came to 0.676 µM.
As to `COc1ccc(C2=[S+]C(c3ccccc3)(c3ccccc3)c3ccccc32)cc1`, the result was inactive.
For the compound `COC1=CC(=O)[C@]2(C)[C@H](C1=O)C(C)[C@H]2c1ccc(OC)cc1` (some centres not stated), the EC50 is above 87.1 µM and the IC50 was above 87.1 µM.
`O=[N+]([O-])C(=C(NCc1ccccc1)NCc1ccccc1)C(Cl)=C(Cl)Cl`: the EC50 was above 200 µM and the IC50 was determined as 35.5 µM.
On the same counts, the results for `Cc1cn(C2CCN(CC3COC(C)(C)O3)O2)c(=O)[nH]c1=O` (configuration not stated) are above 200 µM and above 200 µM.
`CCCCCCCCCCCCCCCC[N+](C)(C)CCN(Cc1ccc(OC)cc1)c1ncccn1`: the EC50 was above 200 µM and the IC50 was found to be 0.977 µM.
`O=[N+]([O-])c1ccccc1S(=O)(=O)c1cc(Cl)cc2c1NCCC2`: the EC50 is above 151 µM and the IC50 amounted to 28.8 µM.
Take `CC(=O)N1CCc2cc(S(C)(=O)=O)c3c(c21)CCC3`: the outcome was inactive.
As to `CCC(O)CCCCCCCCCCCCCCC(=O)O` (configuration not stated), the outcome was inactive.
In the case of `CN(C)Cc1cc(C=O)cc(CN(C)C)c1O`, the EC50 is above 200 µM and the 50% inhibitory concentration (IC50) was above 200 µM.
For `CN(C)CC1CCCC(CN(C)C)C1=NO` (configuration not stated), the outcome was inactive.
Turning to `CCOP(=O)(OCC)C(N)c1ccc(OC)cc1` (configuration not stated), the EC50 was above 813 µM and the IC50 was above 813 µM.
As for `COc1ccc([C@H]2[C@H]3COC(=O)[C@H]3C(C#N)=C3Sc4ccccc4N32)cc1`, the EC50 is above 200 µM and the concentration for half-maximal inhibition (IC50) was determined as 12.9 µM.
`CCOC(=O)c1sc(SSc2nc(C)c(C(=O)OCC)s2)nc1C`: the EC50 is above 200 µM and the IC50 was above 200 µM.
Consider `S=c1c2ccccc2c(=S)n2n1CC=CC2`, for which the result was inactive.
For `COS(=O)CCOC(=O)c1ccccc1SSc1ccccc1C(=O)OCCS(=O)OC` (configuration not stated), the half-maximal effective concentration (EC50) is 112 µM and the IC50 is above 200 µM.
On to `O=C(Nc1ccccc1)OCCN=c1c2ccccc2ccc2ccccc12`, for which the concentration giving a half-maximal response (EC50) is 17 µM and the IC50 worked out at 24.5 µM.
Consider `CCCC1C(CC)C(NC)C(C#N)(C#N)C1(C#N)C#N` (configuration not stated), for which the EC50 was above 200 µM and the concentration for half-maximal inhibition (IC50) was found to be 10.2 µM.
Regarding `CC1=CC2C(C=C1)S(=O)(=O)N1CC21c1ccccc1` (configuration not stated), the outcome was inactive.
As for `Cc1ccccc1NC(=O)c1cc(-c2ccc([N+](=O)[O-])cc2)nc(=S)[nH]1`, the EC50 was above 490 µM and the concentration for half-maximal inhibition (IC50) was above 490 µM.
`CC(C)(C)c1ccc(Oc2ccc(C#N)c(C#N)c2)c(C(C)(C)C)c1`: the EC50 was above 77.6 µM and the IC50 was above 77.6 µM.
Consider `COC1=C(C)C(=O)C(=O)c2cccnc21`, for which the outcome was inactive.
As to `Cc1cn(C2C=CCCC2O)c(=O)[nH]c1=O` (configuration not stated), the EC50 was above 200 µM and the IC50 is above 200 µM.
Consider `O=C(O)c1ccccc1C(=O)OCC1CCCN2CCCCC12` (configuration not stated), for which the EC50 is above 151 µM and the half-inhibitory concentration (IC50) is above 151 µM.
Consider `O=C1C=Cc2ccccc2/C1=C/c1[nH]c(=O)[nH]c1O`, for which the EC50 was above 200 µM and the IC50 stood at 16.2 µM.
As to `COc1ccc(C[C@H]2C(=O)OC[C@@H]2Cc2ccc(OC)c(OC)c2)cc1O`, the EC50 is above 200 µM and the concentration for half-maximal inhibition (IC50) came to 70.8 µM.
As for `O=C1NC(=O)C(C(=O)C(=O)Nc2ccc(Cl)cc2Cl)C(=O)N1`, the EC50 was above 275 µM and the IC50 is above 275 µM.
On to `CN[C@@H]1[C@H](O)[C@H](NC)[C@H]2O[C@@]3(O)C(=O)C[C@@H](C)O[C@H]3O[C@@H]2[C@H]1O`, for which the EC50 is above 200 µM and the IC50 was above 200 µM.
Turning to `CN1B(c2ccccc2)N(C)C(=O)N(C)C1=O`, the EC50 is above 200 µM and the IC50 was above 200 µM.
`CC1=CCC(C(C)(C)NC(=O)c2ccccc2)C/C1=N/O` (configuration not stated): the EC50 was above 91.2 µM and the IC50 is above 91.2 µM.
With `Cc1cccc2c1NC(c1c(C)[nH]c3ccccc13)C2` (configuration not stated), the outcome was inactive.
Consider `COc1ccc(C[C@H](N)C(=O)N2C[C@@H](CO)C[C@@H](n3ccc(=O)[nH]c3=O)C2)cc1`, for which the EC50 was above 309 µM and the IC50 was above 309 µM.
Turning to `O=C1C(=O)c2c(nc3ccccn23)-c2ccccc21`, the EC50 was above 2 µM and the half-inhibitory concentration (IC50) stood at 0.427 µM.
Turning to `CC(C)CCCC(C)[C@H]1CCC2C3C[C@@H](CCC=C(c4cc(Cl)c(O)c(C(=O)O)c4)c4cc(Cl)c(O)c(C(=O)O)c4)[C@H]4CCCC[C@]4(C)C3CC[C@@]21C` (some centres not stated), the EC50 is 20 µM and the 50% inhibitory concentration (IC50) was above 100 µM.
In the case of `N=C1SCc2c1sc1ccccc21`, the EC50 is above 56.2 µM and the IC50 was found to be 28.8 µM.
As for `Nc1ncnc2c1ncc(=O)n2C1CC(O)C(CO)O1` (configuration not stated), the EC50 was above 200 µM and the half-maximal inhibitory concentration (IC50) is above 200 µM.
`c1ccc(CSC2(SCc3ccccc3)CCCCC2)cc1`: the EC50 is above 200 µM and the 50% inhibitory concentration (IC50) was determined as 77.6 µM.
As to `O=c1[nH]c2ccccc2c(O)c1CCCC1CCCCC1`, the EC50 is above 200 µM and the IC50 came out at 132 µM.
Regarding `C=C1C(O)O[C@@H]2O[C@@]3(C)CC[C@H]4[C@H](C)CCC1[C@@]24O3` (some centres not stated), the EC50 is above 200 µM and the 50% inhibitory concentration (IC50) was determined as 95.5 µM.
As to `CCOC(=O)C(NO)C(Sc1ccccc1)c1ccc(OC)cc1` (configuration not stated), the outcome was inactive.
Still for that read-out and setting: next, `O=c1ccn(-c2ccccn2)c(=O)n1-c1ccccn1`: “inactive”.
Consider `O=C1CCS(=O)(=O)O1`, for which the EC50 was above 1820 µM and the IC50 is above 1820 µM.
With `COc1cc(CC(=O)c2ccc3c(c2)OCO3)cc(OC)c1OC`, the EC50 is above 204 µM and the 50% inhibitory concentration (IC50) was above 204 µM.
Turning to `O=C1C(NS(=O)(=O)c2ccccc2)=C(n2ccnc2)C(=O)c2ccccc21`, the EC50 was above 200 µM and the IC50 was 91.2 µM.
For `Cc1ccc(O)c(-c2cscn2)c1`, the EC50 was above 200 µM and the half-maximal inhibitory concentration (IC50) is 107 µM.
Consider `O=C(NCCCCCCNC(=O)NC1OCC(O)C(O)C1O)NC1OCC(O)C(O)C1O` (configuration not stated), for which the outcome was inactive.
As for `Cc1nc(Nc2ccc([N+](=O)[O-])cc2)sc1C(/C=C/c1ccc(N(C)C)cc1)=N/NC(=O)c1ccccc1`, the EC50 was above 13.8 µM and the IC50 was above 13.8 µM.
As for `Cc1cn2c(nc1=O)OC1C(O)C(CCl)OC12` (configuration not stated), the EC50 is above 200 µM and the IC50 is above 200 µM.
In the case of `O=C1/C(=C/c2cccc([N+](=O)[O-])c2)COc2ccccc21`, the EC50 is above 12.9 µM and the half-maximal inhibitory concentration (IC50) came out at 1.51 µM.
For `COc1cccc(/C=N/[N-]C(N)=O)c1[O-].[OH3+].[Zn+2]` the same measures were above 447 µM and 132 µM.
Take `CCOC(=O)C(NC(=O)c1cccc(Cl)c1)(N1CCN(c2cc3c(cc2F)c(=O)c(C(=O)O)cn3C2CC2)CC1)C(F)(F)F` (configuration not stated): the EC50 is above 20 µM and the half-inhibitory concentration (IC50) was 10.2 µM.
In the case of `COc1cc(Cc2nnc(N)[nH]c2=O)cc(OC)c1OC`, the EC50 was above 17.8 µM and the IC50 is above 17.8 µM.
Take `OCC(Oc1ccccc1)C(O)C(O)C(CO)Oc1ccccc1` (configuration not stated): the EC50 is above 200 µM and the IC50 is above 200 µM.
On to `O=C1OC(c2ccccc2)(c2ccccc2)CC1CN1CCOCC1` (configuration not stated), for which the EC50 is above 57.5 µM and the half-inhibitory concentration (IC50) worked out at 12 µM.
In the case of `COP1(=S)OCC(C(C)(C)C)CO1` (configuration not stated), the EC50 was above 57.5 µM and the IC50 is above 57.5 µM.
